Data on one compound can be found in ChEMBL document CHEMBL3877251, “Synthesis and biological evaluation of a series of N-alkylated imidazole alkanoic acids as mGAT3 selective GABA uptake inhibitors” (Eur J Med Chem, 2016).

Structures are written as SMILES.

Common to all, as to type: cell-based
For assay [1], the target named is T1, Sodium- and chloride-dependent betaine transporter (Homo sapiens, UniProt P48065).
T1 sequence (P48065 whole entry): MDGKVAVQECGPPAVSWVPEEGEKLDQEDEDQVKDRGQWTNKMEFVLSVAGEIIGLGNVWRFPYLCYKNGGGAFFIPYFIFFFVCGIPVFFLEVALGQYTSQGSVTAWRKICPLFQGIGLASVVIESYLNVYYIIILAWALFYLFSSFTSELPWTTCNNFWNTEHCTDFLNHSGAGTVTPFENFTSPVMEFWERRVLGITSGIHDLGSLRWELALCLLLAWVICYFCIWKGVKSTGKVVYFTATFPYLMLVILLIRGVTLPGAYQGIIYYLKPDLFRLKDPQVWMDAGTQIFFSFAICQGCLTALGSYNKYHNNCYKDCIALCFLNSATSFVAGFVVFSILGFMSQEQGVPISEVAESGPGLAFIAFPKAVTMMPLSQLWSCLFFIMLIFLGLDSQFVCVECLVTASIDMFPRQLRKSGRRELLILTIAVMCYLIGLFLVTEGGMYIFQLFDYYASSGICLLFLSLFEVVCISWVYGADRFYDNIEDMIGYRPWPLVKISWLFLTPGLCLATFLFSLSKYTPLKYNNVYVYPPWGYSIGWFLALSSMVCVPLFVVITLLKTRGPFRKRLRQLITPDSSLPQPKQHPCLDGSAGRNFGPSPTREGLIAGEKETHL
Put plainly: Inhibition of human BGT-1 expressed in thymidine kinase deficient mouse LM cells assessed as decrease in [3H]GABA uptake after 10 mins by scintillation counter method.

Assay [2] addresses T2, GABA transporter 2 (Mus musculus) (UniProt P31651).
T2 sequence (whole entry): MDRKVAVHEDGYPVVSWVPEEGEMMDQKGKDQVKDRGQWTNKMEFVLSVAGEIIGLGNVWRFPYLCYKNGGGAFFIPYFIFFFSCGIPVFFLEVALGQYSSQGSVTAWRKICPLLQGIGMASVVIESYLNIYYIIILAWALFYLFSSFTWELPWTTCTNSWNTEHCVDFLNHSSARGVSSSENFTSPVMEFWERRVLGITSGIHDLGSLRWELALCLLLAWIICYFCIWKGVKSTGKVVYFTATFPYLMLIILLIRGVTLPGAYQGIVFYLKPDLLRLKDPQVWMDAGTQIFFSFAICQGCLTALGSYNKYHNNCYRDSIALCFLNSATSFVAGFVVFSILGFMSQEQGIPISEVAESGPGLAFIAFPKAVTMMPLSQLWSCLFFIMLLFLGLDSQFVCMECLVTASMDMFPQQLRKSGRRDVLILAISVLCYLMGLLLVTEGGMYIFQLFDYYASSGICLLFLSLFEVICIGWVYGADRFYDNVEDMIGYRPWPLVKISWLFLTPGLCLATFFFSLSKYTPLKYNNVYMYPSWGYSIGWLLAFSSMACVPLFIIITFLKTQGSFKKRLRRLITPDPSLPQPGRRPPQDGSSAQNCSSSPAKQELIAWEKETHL
Put plainly: Inhibition of mouse GAT2 expressed in HEK293 cells assessed as decrease in [3H]GABA uptake at 100 uM preincubated for 25 mins followed by [3H]GABA addition measured after 10 mins by liquid scintillation counter method.

Assay [3] concerns the target Sodium- and chloride-dependent GABA transporter 1 (Mus musculus) (UniProt P31648). Put plainly: Inhibition of mouse GAT1 expressed in HEK293 cells assessed as decrease in [3H]GABA uptake at 100 uM preincubated for 25 mins followed by [3H]GABA addition measured after 4 mins by liquid scintillation counter method.
Another assay addresses T3, GABA transporter 3 (Mus musculus, UniProt P31649).
T3 sequence (P31649 whole entry): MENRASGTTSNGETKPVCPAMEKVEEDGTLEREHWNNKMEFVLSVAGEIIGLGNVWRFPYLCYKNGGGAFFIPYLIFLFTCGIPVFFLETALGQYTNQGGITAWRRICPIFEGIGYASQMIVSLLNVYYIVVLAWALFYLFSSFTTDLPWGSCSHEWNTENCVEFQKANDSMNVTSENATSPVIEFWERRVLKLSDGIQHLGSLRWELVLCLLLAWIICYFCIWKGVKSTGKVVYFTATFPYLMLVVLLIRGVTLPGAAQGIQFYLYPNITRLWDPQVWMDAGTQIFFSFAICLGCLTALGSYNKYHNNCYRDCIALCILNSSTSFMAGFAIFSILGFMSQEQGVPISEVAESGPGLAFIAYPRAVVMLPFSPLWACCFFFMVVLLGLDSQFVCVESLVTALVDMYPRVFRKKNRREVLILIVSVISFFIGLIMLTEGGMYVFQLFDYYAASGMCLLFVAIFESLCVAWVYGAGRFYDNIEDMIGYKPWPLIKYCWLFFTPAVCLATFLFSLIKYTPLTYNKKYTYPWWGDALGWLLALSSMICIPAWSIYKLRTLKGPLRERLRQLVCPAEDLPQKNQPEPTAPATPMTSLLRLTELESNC
Put plainly: Inhibition of mouse GAT3 expressed in HEK293 cells assessed as decrease in [3H]GABA uptake preincubated for 25 mins followed by [3H]GABA addition measured after 4 mins by liquid scintillation counter method.

The target in a further assay is T4, GABA transporter 4 (Mus musculus, UniProt P31650).
T4 sequence (P31650 whole entry): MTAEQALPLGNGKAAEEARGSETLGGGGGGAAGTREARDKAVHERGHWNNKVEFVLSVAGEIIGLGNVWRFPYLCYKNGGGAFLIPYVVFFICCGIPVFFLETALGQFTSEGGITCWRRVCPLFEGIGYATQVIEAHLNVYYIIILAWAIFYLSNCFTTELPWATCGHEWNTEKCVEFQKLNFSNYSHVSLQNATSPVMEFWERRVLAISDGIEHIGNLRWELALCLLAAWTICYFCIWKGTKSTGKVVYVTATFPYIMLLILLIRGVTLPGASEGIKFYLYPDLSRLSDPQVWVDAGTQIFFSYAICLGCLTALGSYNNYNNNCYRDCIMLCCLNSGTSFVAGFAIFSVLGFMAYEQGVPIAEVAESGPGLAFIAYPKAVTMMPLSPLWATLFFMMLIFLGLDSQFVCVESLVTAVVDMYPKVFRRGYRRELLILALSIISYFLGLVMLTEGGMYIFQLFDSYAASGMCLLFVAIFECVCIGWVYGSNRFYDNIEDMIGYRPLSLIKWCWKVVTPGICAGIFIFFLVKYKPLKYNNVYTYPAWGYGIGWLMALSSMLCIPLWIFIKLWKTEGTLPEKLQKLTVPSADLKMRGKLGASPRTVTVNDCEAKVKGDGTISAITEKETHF
Put plainly: Inhibition of mouse GAT4 expressed in HEK293 cells assessed as decrease in [3H]GABA uptake preincubated for 25 mins followed by [3H]GABA addition measured after 4 mins by liquid scintillation counter method.

Regarding `COc1ccc(C2(OCCN3CCCC(C(=O)O)C3)c3ccccc3-c3ccccc32)cc1` (stereo not given), the IC50 was 27 µM in assay [1], 93.3 µM on GABA transporter 3 and 30.2 µM on GABA transporter 4. In addition, the results for the inhibition in assay [2] and in assay [3] were 66.3% and 73.1%, respectively.

The IC50 is the concentration that gives 50% inhibition. As usually defined, the inhibition is how much of the control response was suppressed.
